Assay results as given in ChEMBL document CHEMBL3856237, “Synthesis and antinociceptive activity of new 2-substituted 4-(trifluoromethyl)-5,6-dihydrobenzo[h]quinazolines” (Bioorg Med Chem Lett, 2016).
The source made the active and inactive calls.

How the values were obtained:
[1] = Solubility of the compound in DMSO; type: physicochemical
Mus musculus [2] = experiment: Antinociceptive activity in CFA-induced arthritic pain Swiss mouse model assessed as inhibition of mechanical hyperalgesia by measuring paw withdrawal threshold administered via oral gavage measured at 2 hrs post dose by Von Frey filament assay; type: functional; details: for ED50: read-out: ID50 (the source's name); for minimal effective dose: read-out: MED
Mus musculus [3] = experiment: Antinociceptive activity in CFA-induced arthritic pain Swiss mouse model assessed as inhibition of mechanical hyperalgesia by measuring paw withdrawal threshold at 100 mg/kg administered via oral gavage measured at 2 hrs post dose by Von Frey filament assay relative to control; type: functional
Mus musculus [4] = experiment: Toxicity in Swiss mouse assessed as effect on forced locomotory activity at 100 mg/kg administered via oral gavage for 1 hr measured up to 4 mins post dose by rotarod test; type: organism-based; details: in vivo
Mus musculus [5] = experiment: Antinociceptive activity in Swiss mouse assessed as inhibition of capsaicin induced nociception by measuring paw licking time at 100 mg/kg administered via oral gavage for 1 hr followed by capsaicin challenge measured for 5 mins post dose relative to control; type: functional
Mus musculus [6] = experiment: Toxicity in Swiss mouse assessed as effect on spontaneous locomotory activity by measuring number of areas crossed at 100 mg/kg administered via oral gavage for 1 hr measured up to 5 mins post dose by open field test (reference value: 27 +/- 6 ); type: organism-based; details: in vivo
Mus musculus [7] = experiment: Antinociceptive activity in CFA-induced arthritic pain Swiss mouse model assessed as inhibition of mechanical hyperalgesia by measuring paw withdrawal threshold at 100 mg/kg administered via oral gavage measured up to 2 hrs post dose by Von Frey filament assay; type: functional, organism-based
Mus musculus [8] = experiment: Antinociceptive activity in CFA-induced arthritic pain Swiss mouse model assessed as inhibition of mechanical hyperalgesia by measuring paw withdrawal threshold at 100 mg/kg administered via oral gavage measured up to 4 hrs post dose by Von Frey filament assay; type: functional, organism-based
Mus musculus [9] = experiment: Antinociceptive activity in CFA-induced arthritic pain Swiss mouse model assessed as inhibition of mechanical hyperalgesia by measuring paw withdrawal threshold at 300 mg/kg administered via oral gavage measured at 2 hrs post dose by Von Frey filament assay relative to control; type: functional

With FC(F)(F)c1ncnc2c1CCc1ccccc1-2 the solubility [1] was “Insoluble”.

With FC(F)(F)c1nc(-c2ccccc2)nc2c1CCc1ccccc1-2 the ED50 (Mus musculus [2]) was 241 mg/kg, the minimal effective dose (Mus musculus [2]) was 100 mg/kg and the Imax (Mus musculus [3]) was 64 - 71%. The Activity (Mus musculus [4]) was “Non-Toxic”, the inhibition in vivo at 100 mg/kg (Mus musculus [5]) was 65% and the Activity (Mus musculus [6]) was 25. For the same compound, the solubility [1] was “Soluble” and the inhibition (Mus musculus [7]) was “Active”.

Compound CC(C(=O)O)c1cccc(C(=O)c2ccccc2)c1 (stereo unspecified) [KETOPROFEN] has an ED50 (Mus musculus [2]) of 144 mg/kg, a minimal effective dose (Mus musculus [2]) of 100 to 300 mg/kg and an Imax (Mus musculus [3]) of 70%. The Activity (Mus musculus [4]) was “Non-Toxic”, the inhibition in vivo at 100 mg/kg (Mus musculus [5]) was 81% and the Activity (Mus musculus [6]) was 38. The inhibition (Mus musculus [8]) was “Active” and the Imax (Mus musculus [9]) was 75%.

For Cc1nc2c(c(C(F)(F)F)n1)CCc1ccccc1-2, the solubility [1] was “Insoluble”.

With FC(F)(F)c1nc(-n2cccc2)nc2c1CCc1ccccc1-2 the Activity (Mus musculus [4]) was “Non-Toxic”, the inhibition in vivo at 100 mg/kg (Mus musculus [5]) was 67% and the Activity (Mus musculus [6]) was 23. The solubility [1] was “Soluble”.

For Nc1nc2c(c(C(F)(F)F)n1)CCc1ccccc1-2, the Activity (Mus musculus [4]) was “Non-Toxic” and the Activity (Mus musculus [6]) was 22.

For CSc1nc2c(c(C(F)(F)F)n1)CCc1ccccc1-2, the Activity (Mus musculus [4]) was “Non-Toxic” and the Activity (Mus musculus [6]) was 23.
